Assay results published in US6890533B2, “Betulinol derivatives” (Cornell Research Foundation, Inc., priority 1997, dated 2005).

Tests used:
[1] = tested on: WALKER-CARCINOMA (carcinosarcoma); experiment: anti-carcinogenic activity in rats implanted with Walker carcinoma; type: in vivo, white rats; details: for ALL, % of control / ALL (Average length of life) / % cured: rats; for ALL (Average length of life): injected daily for 5 days; for % cured: cured rats lived over two months after implantation
Experimental: The anti-carcinogenic activity of betulinol biacetate and betulonic aldehyde was assessed using 117-120 gram white rats implanted with worker's carcinoma and 21-23 gram white mice with artificially transplanted Ehrlich's tumor.
Solutions of 2.5% betulonic aldehyde and 0.05% betulinol biacetate were prepared in 10% polyvinylpyrrolidone containing Tween-80 (a sorbitan mono-9-octadecenate poly(oxy-1,2-ethanediyl)) stabilizer.
Mice were injected with 0.1-0.2 ml of either betulinol biacetate or betulonic aldehyde solution daily, starting 24 hours after transplantation, for the following 5 days. Rats were injected with 1.2 ml of either betulinol biacetate or betulonic aldehyde solution daily, starting 24 hours after implantation, for the following 5 days. Animals in control groups received the same amount of a 10% solution of polyvinylpyrrolidone.
The anti-tumor effect of betulinol acetate or betulonic aldehyde was determined by measuring the volume of the tumor on the 10th day after implantation. An average length of life (“ALL”) was calculated for each of the deceased animals. In addition, the percentage of cured rats was also determined.
The volume of the tumor was measured and calculated as a multiple of the quadrate of its similar diameter by the greater diameter. Thus, the effect was expressed as a ratio (“E/C”), in percent, of the tumor volume in rats treated with betulinol acetate or betulonic aldehyde (“E”) and the tumor volume in control rats (“C”). The effect of betulinol acetate or betulonic aldehyde on ALL was evaluated the same way.

[2] = BBA solubility in organic solvents; type: physicochemical; details: for BBA Mass Content, %, at 20° C.: mass % in organic solvent
Experimental: Studies of betulinol biacetate solubility were conducted in order to determine the appropriate solvent for product crystallization and purification.

[3] = Group 1, Dose/day 204.6 (mg/kg body weight)
[4] = Group 2, Dose/day 106.9 (mg/kg body weight)

C=C(C)[C@@H]1CC[C@]2(COC(C)=O)CC[C@]3(C)[C@H](CC[C@@H]4[C@@]5(C)CC[C@H](OC(C)=O)C(C)(C)[C@@H]5CC[C@]43C)[C@@H]12 [Betulinol diacetate, Betulinol Biacetate]
ALL, % of control [1, 3]: 131.3% | ALL (Average length of life) [1, 3]: 28.5 days | % cured [1, 3]: 50.0% | ALL, % of control [1, 4]: 200.5% | ALL (Average length of life) [1, 4]: 43.5 days | % cured [1, 4]: 67.0% | rate of the tumor growth inhibited, of the control group ([1]; tumor volume on the 10th day, versus control group): 55.2% | BBA Mass Content, %, at 20° C. ([2]; Benzene): 100% | BBA Mass Content, %, at T (° C.) ([2]; Butanol, T 95 ° C.): 100% | BBA Mass Content, %, at 20° C. ([2]; Chloroform): 100% | BBA Mass Content, %, at 20° C. ([2]; Dimethylsulfoxide): 30% | BBA Mass Content, %, at T (° C.) ([2]; Dimethylsulfoxide, T 189 ° C.): 100% | BBA Mass Content, %, at T (° C.) ([2]; Dioxane, T 101 ° C.): 100% | BBA Mass Content, %, at 20° C. ([2]; Hexane): 15% | BBA Mass Content, %, at 20° C. ([2]; Toluene): 100%
